In patent US11577010B2, “Hemostatic devices and methods of use” (priority 2017, dated 2023):

Experiments:
myofibroblast formation = details: Ajmal et al. (2003) Plast. Reconstr. Surg. 112:1455-1461; cited from earlier work
[1] = given preoperatively; cited from earlier work
blood [2] = experiment: in vitro time required to induce blood clotting (Example 18); type: biochemical; details: 1.2 mg of TXA alone
Description: Tests were conducted to compare the time required for different hemostatic agents to induce blood clotting in vitro versus the time required to induce blood clotting in vitro when no hemostatic agent is administered. In particular, the time required to induce blood clotting was plotted for blood alone, a polymer in the p22-xx family (P22-27.5-TYRX), Surgicel, a polymer in the p22-xx family (P22-27.5-TYRX) with 1.6 mg of TXA, 1.2 mg of TXA alone and a polymer in the p22-xx family (P22-27.5-TYRX) with X mg of TXA.
Tests were conducted to compare the time required for different hemostatic agents to induce blood clotting in vitro versus the time required to induce blood clotting in vitro when no hemostatic agent is administered. In particular, the time required to induce blood clotting was plotted for blood alone, TYRX, Surgicel, TYRX with 1.6 mg of TXA, 1.2 mg of TXA alone and TYRX with 200 mg of TXA. In this example, TYRX refers to a Glycoprene mesh that is coated with P22-27.5 (a polymer in the P22-X family) containing Rifampin and Minocycline.

blood [3] = experiment: in vitro blood clotting time with different amounts of TXA in presence of TYRX (Example 17); type: biochemical; details: higher amounts of TXA (1.6 mg TXA vs 200 mg of TXA), in the presence of TYRX
Description: Tests were conducted to compare the time required to induce blood clotting in vitro when different amounts of hemostatic agent is administered in the presence of TYRX (degradable mesh coated with P22-27.5 containing rifampin and minocycline), as shown in FIG. 40. Clotting time was […] when higher amounts of TXA was present (1.6 mg TXA vs 200 mg of TXA), as shown below in FIG. 44.

[4] = stability of rifampin and minocycline in PBS with and without tranexamic acid (Example 14); type: physicochemical; details: regardless of temperature (RT about 23° C. and 37° C.)
Description: The mixtures were tested both at room temperature (RT) (about 23° C.) and at 37° C.

[5] = in vitro elution of rifampin and minocycline from p22-27.5 polymers with TXA in release media (Example 15); type: physicochemical; details: PBS pH 7.4 without or with TXA 0.05 mg/mL or 5 mg/mL, over 25 hours
Description: B1=PBS pH 7.4; B2=PBS, pH 7.4+TXA (0.05 mg/mL); B3=PBS, pH 7.4+TXA (5 mg/mL).

O=S(=O)([O-])CCS.[Na+] [MESNA, sodium 2-mercaptoethane sulfonate]
myofibroblast formation (myofibroblast formation): diminish myofibroblast formation

NC[C@H]1CC[C@H](C(=O)O)CC1 [tranexamic acid]
time to reach plasma concentrations [1]: 5 to 15 min | time to induce blood clotting (blood [2]): about 19 minutes | Clotting time (blood [3]): increased

CO[C@H]1/C=C/O[C@@]2(C)Oc3c(C)c(O)c4c(O)c(c(/C=N/N5CCN(C)CC5)c(O)c4c3C2=O)NC(=O)/C(C)=C\C=C\[C@H](C)[C@H](O)[C@@H](C)[C@@H](O)[C@@H](C)[C@H](OC(C)=O)[C@@H]1C [rifampin]
percentage area of rifampin, mixtures with vs without tranexamic acid [4]: substantially the same | elution rates, effect of TXA in the release media [5]: not effected
